Test results reported in publication PMC3914206.

Legend:
panel of 442 kinases [1] = molecular target: T1, panel of 442 kinases (Homo sapiens, UniProt Q15139); format: binding; conditions: Compound Concentration 10 µM
T1 construct: purchased KINOMEscan
T1 sequence (Q15139 1-912): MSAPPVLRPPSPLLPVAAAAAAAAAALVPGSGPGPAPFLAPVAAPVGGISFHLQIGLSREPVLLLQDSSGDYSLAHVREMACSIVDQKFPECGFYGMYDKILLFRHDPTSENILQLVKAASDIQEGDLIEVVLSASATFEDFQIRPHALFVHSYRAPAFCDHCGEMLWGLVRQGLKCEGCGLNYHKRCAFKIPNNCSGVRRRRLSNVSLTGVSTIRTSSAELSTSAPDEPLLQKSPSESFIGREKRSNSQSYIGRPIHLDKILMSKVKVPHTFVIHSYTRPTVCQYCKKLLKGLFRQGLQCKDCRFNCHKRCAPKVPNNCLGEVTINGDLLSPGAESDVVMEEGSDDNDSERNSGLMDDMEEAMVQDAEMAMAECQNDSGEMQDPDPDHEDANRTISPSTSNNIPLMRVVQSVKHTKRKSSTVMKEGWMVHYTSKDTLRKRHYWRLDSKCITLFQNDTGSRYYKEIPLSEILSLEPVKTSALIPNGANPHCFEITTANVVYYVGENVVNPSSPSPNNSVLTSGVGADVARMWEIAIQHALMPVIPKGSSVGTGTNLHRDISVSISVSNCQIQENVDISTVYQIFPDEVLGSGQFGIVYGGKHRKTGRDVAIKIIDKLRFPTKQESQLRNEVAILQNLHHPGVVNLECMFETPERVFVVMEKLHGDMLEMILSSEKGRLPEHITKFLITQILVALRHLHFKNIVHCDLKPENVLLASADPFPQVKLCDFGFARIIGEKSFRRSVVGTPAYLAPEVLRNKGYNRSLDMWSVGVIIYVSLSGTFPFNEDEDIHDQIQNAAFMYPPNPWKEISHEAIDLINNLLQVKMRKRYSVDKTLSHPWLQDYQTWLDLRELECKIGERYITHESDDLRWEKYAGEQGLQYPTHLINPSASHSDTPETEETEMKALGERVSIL
From the text: (§1) We assessed the selectivity of members of this scaffold using the KINOMEscan methodology across a near comprehensive panel of 442 kinases [[18,27]].

panel of 442 kinases [2] = molecular target: T2, panel of 442 kinases (Homo sapiens, UniProt Q16584); format: binding; conditions: Compound Concentration 10 µM
T2 construct: purchased KINOMEscan
T2 sequence (Q16584 whole entry): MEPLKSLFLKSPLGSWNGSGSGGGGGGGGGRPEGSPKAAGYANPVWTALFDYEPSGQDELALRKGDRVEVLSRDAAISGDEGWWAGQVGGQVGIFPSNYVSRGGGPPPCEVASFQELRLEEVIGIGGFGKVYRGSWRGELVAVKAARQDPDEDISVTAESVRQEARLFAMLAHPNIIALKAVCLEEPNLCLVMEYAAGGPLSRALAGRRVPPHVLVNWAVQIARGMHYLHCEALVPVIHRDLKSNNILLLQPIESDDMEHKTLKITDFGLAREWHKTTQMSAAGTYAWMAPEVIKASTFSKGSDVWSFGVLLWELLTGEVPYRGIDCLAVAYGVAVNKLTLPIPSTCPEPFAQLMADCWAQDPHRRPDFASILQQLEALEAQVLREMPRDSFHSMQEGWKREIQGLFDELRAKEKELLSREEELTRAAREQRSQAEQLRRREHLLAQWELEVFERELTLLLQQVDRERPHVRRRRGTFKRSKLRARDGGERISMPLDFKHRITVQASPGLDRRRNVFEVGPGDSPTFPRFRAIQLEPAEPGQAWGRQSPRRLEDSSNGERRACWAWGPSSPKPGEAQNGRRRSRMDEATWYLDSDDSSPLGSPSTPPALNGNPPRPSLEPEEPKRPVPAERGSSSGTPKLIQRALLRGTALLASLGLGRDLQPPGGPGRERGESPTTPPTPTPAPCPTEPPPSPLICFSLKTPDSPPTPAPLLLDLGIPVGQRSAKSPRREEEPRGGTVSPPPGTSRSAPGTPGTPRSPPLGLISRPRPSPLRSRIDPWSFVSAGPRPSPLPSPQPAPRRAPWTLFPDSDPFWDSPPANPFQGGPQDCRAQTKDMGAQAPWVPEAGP
From the text: as §1

Structure (SMILES)	KINOMEscan: PRKD1 (panel of 442 kinases [1])	KINOMEscan: MLK3 (panel of 442 kinases [2])
COc1cc(C(=O)N2CCC(N3CCN(C)CC3)CC2)ccc1Nc1ncc2c(n1)N(C1CCCC1)c1ccccc1C(=O)N2C [Compound 25, 11-cyclopentyl-2-((2-methoxy-4-(4-(4-methylpiperazin-1-yl)piperidine-1-carbonyl)phenyl)amino)-5-methyl-5H-benzo[e]pyrimido[5,4-b][1,4]diazepin-6(11H)-one]	100	100
COc1cc(C(=O)N2CCC(N3CCN(C)CC3)CC2)ccc1Nc1ncc2c(n1)N1CCc3cccc(c31)C(=O)N2C [Compound 24]	21	–
COc1cc(C(=O)N2CCC(N3CCN(C)CC3)CC2)ccc1Nc1ncc2c(n1)N(C)c1ccccc1C(=O)N2C [15 (LRRK2-IN-1)]	28	100
CCOc1cc(C(=O)N2CCC(N3CCN(C)CC3)CC2)ccc1Nc1ncc2c(n1)N(C1CCCC1)c1ccccc1C(=O)N2C [Compound 26]	100	100
